For assay [1], the species on record is Oryctolagus cuniculus. Kind of assay: Inhibition of increase in intestine potential difference caused by diarrhea-inducing secretagogues in rabbits using 'Using chamber'; Inactive. It is filed as functional, organism-based.
For assay [2], the species on record is Rattus norvegicus. Kind of assay: Inhibition of cholera toxin induced intestinal fluid secretion in rat; I= Inactive. It is filed as functional, organism-based.
For assay [3], the species on record is Rattus norvegicus. Kind of assay: Inhibition of cholera toxin induced intestinal fluid secretion in rat. It is filed as functional. The settings on record: read-out: ID50 (the source's name).
Assay [4] is filed under the species Oryctolagus cuniculus. Kind of assay: Inhibition of increase in intestine potential difference caused by diarrhea-inducing secretagogues in rabbits using ''Using chamber''; Active at 1.1 x 10e-5 M. It is filed as functional, organism-based.
The species named for assay [5] is Oryctolagus cuniculus. Kind of assay: Inhibition of increase in intestine potential difference caused by diarrhea-inducing secretagogues in rabbits using 'Using chamber'; Active 1.0x 10e-6 M. It is filed as functional, organism-based.
The species named for assay [6] is Oryctolagus cuniculus. Kind of assay: Inhibition of increase in intestine potential difference caused by diarrhea-inducing secretagogues in rabbits using 'Using chamber'; Active at 1.0 x 10e-6 M. It is filed as functional, organism-based.

From ChEMBL document CHEMBL1123941, “Potential antisecretory antidiarrheals. 1. Alpha 2-adrenergic aromatic aminoguanidine hydrazones” (1988) come the findings set out here.

Structures are written as SMILES. Active and inactive are the calls of the source. No cut-off for these calls is given here.

`N=C(N)N/N=C/c1ccnc2ccccc12`: the inhibition result in the assay listed under Oryctolagus cuniculus [1] was “inactive”. Also, the ID50 entry in the assay filed under Rattus norvegicus [2] is “inactive”. Turning to `Cc1ccccc1/C=N/N=C(N)N`, in the assay filed under Oryctolagus cuniculus [1], the inhibition result was “inactive”. For the same molecule, the ID50 entry in the assay filed under Rattus norvegicus [2] is “inactive”. With `N=C(N)N/N=C1\CCc2ccccc21`, the ID50 result in the assay listed under Rattus norvegicus [2] was “inactive”. For `N=C(N)N/N=C1\CCCc2ccccc21`, the inhibition entry in the assay filed under Oryctolagus cuniculus [1] is “inactive”. For the same molecule, the ED50 in the assay filed under Rattus norvegicus [3] worked out at 30.6 mg/kg. Take `Cc1ccc(N)cc1/C=N/N=C(N)N`: the ID50 result in the assay listed under Rattus norvegicus [2] was “inactive”.

For `Cc1c(N)cccc1/C=N/N=C(N)N`, in the assay filed under Oryctolagus cuniculus [1], the inhibition entry is “inactive”. Moreover, the ID50 result in the assay listed under Rattus norvegicus [2] is “inactive”.

Consider `COc1cc(C)c(/C=N/N=C(N)N)c(C)c1`, for which the inhibition result in the assay filed under Oryctolagus cuniculus [1] was “inactive”. For the same molecule, in the assay filed under Rattus norvegicus [3], the ED50 was 27 mg/kg. With `Cc1cccc(C)c1/C=N/NC1=NCCN1`, the ED50 in the assay listed under Rattus norvegicus [3] stood at 7.9 mg/kg. For `Cc1cc(/C=N/N=C(N)N)cc(C)c1O`, the inhibition entry in the assay listed under Oryctolagus cuniculus [1] was “inactive”. The ID50 entry in the assay filed under Rattus norvegicus [2] was “inactive”.

Take `CC1CCc2ccccc2/C1=N/N=C(N)N` (stereo unspecified): the ID50 entry in the assay filed under Rattus norvegicus [2] was “inactive”. `COc1ccc2c(c1)CCC/C2=N\N=C(N)N`: the ED50 in the assay filed under Rattus norvegicus [3] amounted to 20.5 mg/kg. For `Cc1cc(O)cc(C)c1/C=N/N=C(N)N`, in the assay filed under Oryctolagus cuniculus [1], the inhibition entry was “inactive”. Moreover, in the assay listed under Rattus norvegicus [3], the ED50 was 3.4 mg/kg. The corresponding values for `N=C(N)N/N=C/c1cccc2ccccc12` are “inactive” and 34.6 mg/kg.

In the case of `C/C(=N\N=C(N)N)c1c(C)cccc1C`, the inhibition entry in the assay listed under Oryctolagus cuniculus [1] was “inactive”. Besides, the inhibition result in the assay filed under Oryctolagus cuniculus [4] is “Active at 1.1 x 10e-5 M”. For the same molecule, the ED50 in the assay filed under Rattus norvegicus [3] came out at 13.3 mg/kg. In the assay filed under Rattus norvegicus [2], the ID50 result is “inactive”. Take `Cc1cc(C)c(/C=N/N=C(N)N)c(C)c1`: the inhibition entry in the assay filed under Oryctolagus cuniculus [1] is “inactive”. Further, the ED50 in the assay filed under Rattus norvegicus [3] was 16.6 mg/kg.

As for `Cc1c(N)cc(N)c(C)c1/C=N/N=C(N)N`, the ID50 result in the assay listed under Rattus norvegicus [2] is “inactive”.

Turning to `N=C(N)N/N=C/c1c(Cl)cccc1Cl` [GUANABENZ], in the assay listed under Oryctolagus cuniculus [5], the inhibition result was “Active”. Besides, the ED50 in the assay listed under Rattus norvegicus [3] stood at 1.3 mg/kg. On to `COc1ccc2c(c1)/C(=N/N=C(N)N)CCC2`, for which the ID50 result in the assay listed under Rattus norvegicus [2] is “inactive”. As for `COc1cccc2c1CCC/C2=N\N=C(N)N`, the ID50 result in the assay listed under Rattus norvegicus [2] is “inactive”. For the molecule `N=C(N)N/N=C/c1ccc2ccccc2c1`, the inhibition entry in the assay filed under Oryctolagus cuniculus [1] is “inactive”. Further, in the assay filed under Rattus norvegicus [2], the ID50 result is “inactive”. For the molecule `Cc1cccc(C)c1/C=N/N=C(N)N`, the inhibition entry in the assay listed under Oryctolagus cuniculus [6] was “Active at 1.0 x 10e-6 M”. Also, in the assay listed under Rattus norvegicus [3], the ED50 came out at 1.6 mg/kg.
